# In patent US20050106249A1 (priority 2002, published 2005):
# What was measured:
# [1] = system: healthy male subjects; experiment: Example 5 pupil size; format: in vivo, human; conditions: IV morphine 10 mg; Example 2 SZO-24 dosage form 2×20 mg
# [2] = system: healthy male subjects; experiment: Example 5 cold pain test; conditions: 10 mg IV infusion over 15 min
# [3] = analyte in plasma after 40 mg (oxycodone HCl) SZO-24 dosage form
# [4] = cited from earlier work
# [5] = system: Male Sprague-Dawley (SD) rats; experiment: Example 8 rat tolerance study, tail-flick assay; conditions: for Tail flick results: mean ± SD
# Protocol: The biphasic dosing regimen used subcutaneous (SC) infusion, and the SZO regimen used subcutaneously-implanted ALZET® osmotic pumps. The vehicle control for the study was 0.9% saline.
# The rodent tail-flick assay was used to assess analgesia (antinociception). […] In the assay, rodents are briefly restrained and radiant heat is applied to the tip of the tail. The time it takes for the animal to flick its tail is recorded; a delay in this response compared to pre-dose readings is indicative of antinociception.
# An IITC Model 33 Tail Flick Analgesia Meter was used to apply heat to the animal's tail (IITC Life Science, Woodland Hills, Calif.). […] (this temperature allows pre-warming of the animal's tail to allow for more uniform measurements from day-to-day and test-to-test); • (3) Cutoff Time: 10 seconds (i.e., the length of time from the start of the test until the unit automatically ends the test to prevent tissue damage).
# The animals were briefly restrained in plexiglass restrainers and radiant heat was applied to the tip of the animal's tail (approximately 1-2 cm from the tip). After the temperature reached 30° C., the meter increased the light intensity providing a noxious stimulus to the animal's tail. The time in seconds for the animal to flick its tail was recorded for each animal.
# Tail flick latency values were converted to a percentage of the maximum possible effect (%MPE) using the following formula: %MPE=100×(ΔL/ΔLmax) where: ΔL=Post-dose Latency−Pre-dose Latency, and ΔLmax=Cutoff Time−Pre-dose Latency.
# For the biphasic dosing regimen, the animals were subcutaneously infused using a computer-controlled Harvard syringe pump. […] The animals had catheters implanted subcutaneously with approximately 7 cm of PE 10 tubing. The tubing was secured with sutures and sterile surgical skin glue to prevent accidental removal of the catheter.
# For the SZO dosing regimen, ALZET® osmotic pumps (Model 2ML1) were implanted subcutaneously in the animals. […] For the SZO dosing, the rats were not tethered.
# Male Sprague-Dawley (SD) rats obtained from Charles River (Hollister, Calif.) and weighing at least 200g were used in the experiments. Extra animals were employed in the biphasic dosing regimen to take account of damaged catheters, but only enough animals were dosed on Day +3 to replace the animals with damaged catheters.
# Intuitively, the difference between the effect of the same test on Day +3 and Day −1 should be a direct measure of tolerance. The data collected from rats tested for responses at 0, 0.25, 0.5, 0.75, and 1 mg/kg were thus used to perform the statistical analysis.
# The data (difference between Day +3 and Day −1) were analyzed by the analysis of variance (ANOVA) method. The full variance model consisted of the three primary factors, their first-order interaction terms and their second order interaction term, namely: • dosing regimen, • 3-day treatment, • tail flick testing dose, • dosing regimen×3-day treatment, • dosing regimen×tail flick testing dose, • 3-day treatment×tail flick testing dose, and • dosing regiment×3-day treatment x tail flick testing dose.
# [6] = human plasma; orally administered immediate release oxycodone; cited from earlier work
structure (smiles),measurement,setting,value
"CN1CC[C@]23c4c5ccc(O)c4O[C@H]2[C@@H](O)C=C[C@H]3[C@H]1C5 [IV morphine, morphine]",pupil size changes,[1],consistent with their respective pharmacokinetic profiles
same,separation from placebo in the cold pain test,[2],did not statistically separate from placebo
COc1ccc2c3c1O[C@H]1C(=O)CC[C@@]4(O)[C@@H](C2)NCC[C@]314 [Noroxycodone],"AUCinf, single dose",[3],421.2 ng·h/mL
same,"Cmax, single-dose plasma concentration",[3],0.01312 µg/mL
"COc1ccc2c3c1OC1C(=O)CC[C@@]4(O)[C@@H](C2)N(C)CC[C@]314 (stereo partly shown) [oxycodone, 4,5-epoxy-14-hydroxy-3-methoxy-17-methylmorphinan-6-one]","onset of action, analgesia occurring",[4]; orally administered,≤ 30 min
same,analgesic action apparent (onset),[4]; parenterally administered,≤ 15 min
same,Tail flick results,"[5]; Biphasic dosing (SC infusion, syringe pump, 10 mg/(kg · d)), 3-day treatment oxycodone, testing dose 0 mg/kg, Day +3, n = 7",1.55 ± 4.70 % MPE
same,Tail flick results,"[5]; Biphasic dosing (SC infusion, syringe pump, 10 mg/(kg · d)), 3-day treatment oxycodone, testing dose 0.25 mg/kg SC, Day +3, n = 8",0.48 ± 2.28 % MPE
same,Tail flick results,"[5]; Biphasic dosing (SC infusion, syringe pump, 10 mg/(kg · d)), 3-day treatment oxycodone, testing dose 0.25 mg/kg SC, Day −1, n = 8",4.75 ± 6.80 % MPE
same,Tail flick results,"[5]; Biphasic dosing (SC infusion, syringe pump, 10 mg/(kg · d)), 3-day treatment oxycodone, testing dose 0.5 mg/kg SC, Day +3, n = 8",10.64 ± 7.72 % MPE
same,Tail flick results,"[5]; Biphasic dosing (SC infusion, syringe pump, 10 mg/(kg · d)), 3-day treatment oxycodone, testing dose 0.5 mg/kg SC, Day −1, n = 8",34.19 ± 28.28 % MPE
same,Tail flick results,"[5]; Biphasic dosing (SC infusion, syringe pump, 10 mg/(kg · d)), 3-day treatment oxycodone, testing dose 0.75 mg/kg SC, Day −1, n = 8",49.32 ± 32.89 % MPE
same,Tail flick results,"[5]; Biphasic dosing (SC infusion, syringe pump, 10 mg/(kg · d)), 3-day treatment oxycodone, testing dose 1 mg/kg SC, Day +3, n = 8",30.73 ± 19.05 % MPE
same,Tail flick results,"[5]; Biphasic dosing (SC infusion, syringe pump, 10 mg/(kg · d)), 3-day treatment oxycodone, testing dose 1 mg/kg SC, Day −1, n = 8",84.61 ± 27.43 % MPE
same,Tail flick results,"[5]; Biphasic dosing (SC infusion, syringe pump, 10 mg/(kg · d)), 3-day treatment oxycodone, testing dose 1.5 mg/kg SC, Day −1, n = 8",100.00 ± 0.00 % MPE
same,Tail flick results,"[5]; Biphasic dosing (SC infusion, syringe pump, 10 mg/(kg · d)), 3-day treatment oxycodone, testing dose 3.0 mg/kg SC, Day +3, n = 8",84.81 ± 26.06 % MPE
same,Tail flick results,"[5]; Biphasic dosing group, 3-day treatment saline, testing dose 0.25 mg/kg SC, Day +3, n = 8",9.25 ± 12.00 % MPE
same,Tail flick results,"[5]; Biphasic dosing group, 3-day treatment saline, testing dose 0.25 mg/kg SC, Day −1, n = 8",13.82 ± 7.87 % MPE
same,Tail flick results,"[5]; Biphasic dosing group, 3-day treatment saline, testing dose 0.5 mg/kg SC, Day +3, n = 8",15.22 ± 12.44 % MPE
same,Tail flick results,"[5]; Biphasic dosing group, 3-day treatment saline, testing dose 0.5 mg/kg SC, Day −1, n = 8",26.59 ± 22.79 % MPE
same,Tail flick results,"[5]; Biphasic dosing group, 3-day treatment saline, testing dose 0.75 mg/kg SC, Day +3, n = 8",48.59 ± 39.89 % MPE
same,Tail flick results,"[5]; Biphasic dosing group, 3-day treatment saline, testing dose 0.75 mg/kg SC, Day −1, n = 8",73.56 ± 28.57 % MPE
same,Tail flick results,"[5]; Biphasic dosing group, 3-day treatment saline, testing dose 1 mg/kg SC, Day +3, n = 7",46.00 ± 18.96 % MPE
same,Tail flick results,"[5]; Biphasic dosing group, 3-day treatment saline, testing dose 1 mg/kg SC, Day −1, n = 7",89.52 ± 20.25 % MPE
same,Tail flick results,"[5]; Biphasic dosing group, 3-day treatment saline, testing dose 1.5 mg/kg SC, Day −1, n = 8",92.48 ± 16.05 % MPE
same,Tail flick results,"[5]; Biphasic dosing group, 3-day treatment saline, testing dose 3.0 mg/kg SC, Day +3, n = 8",92.97 ± 15.65 % MPE
same,Tail flick results,"[5]; SZO dosing (SC ALZET, 10 mg/(kg · d)), 3-day treatment oxycodone, testing dose 0 mg/kg, Day +3, n = 8",−4.75 ± 8.51 % MPE
same,Tail flick results,"[5]; SZO dosing (SC ALZET, 10 mg/(kg · d)), 3-day treatment oxycodone, testing dose 0.25 mg/kg SC, Day +3, n = 8",−2.07 ± 4.18 % MPE
same,Tail flick results,"[5]; SZO dosing (SC ALZET, 10 mg/(kg · d)), 3-day treatment oxycodone, testing dose 0.25 mg/kg SC, Day −1, n = 8",14.72 ± 16.16 % MPE
same,Tail flick results,"[5]; SZO dosing (SC ALZET, 10 mg/(kg · d)), 3-day treatment oxycodone, testing dose 0.5 mg/kg SC, Day +3, n = 8",8.48 ± 17.38 % MPE
same,Tail flick results,"[5]; SZO dosing (SC ALZET, 10 mg/(kg · d)), 3-day treatment oxycodone, testing dose 0.5 mg/kg SC, Day −1, n = 8",33.12 ± 19.58 % MPE
same,Tail flick results,"[5]; SZO dosing (SC ALZET, 10 mg/(kg · d)), 3-day treatment oxycodone, testing dose 0.75 mg/kg SC, Day +3, n = 8",7.90 ± 11.36 % MPE
same,Tail flick results,"[5]; SZO dosing (SC ALZET, 10 mg/(kg · d)), 3-day treatment oxycodone, testing dose 0.75 mg/kg SC, Day −1, n = 8",60.76 ± 31.45 % MPE
same,Tail flick results,"[5]; SZO dosing (SC ALZET, 10 mg/(kg · d)), 3-day treatment oxycodone, testing dose 1 mg/kg SC, Day +3, n = 8",23.75 ± 25.96 % MPE
same,Tail flick results,"[5]; SZO dosing (SC ALZET, 10 mg/(kg · d)), 3-day treatment oxycodone, testing dose 1 mg/kg SC, Day −1, n = 8",80.15 ± 36.76 % MPE
same,Tail flick results,"[5]; SZO dosing (SC ALZET, 10 mg/(kg · d)), 3-day treatment oxycodone, testing dose 1.5 mg/kg SC, Day −1, n = 8",91.44 ± 24.22 % MPE
same,Tail flick results,"[5]; SZO dosing (SC ALZET, 10 mg/(kg · d)), 3-day treatment oxycodone, testing dose 3.0 mg/kg SC, Day +3, n = 8",94.35 ± 11.48 % MPE
same,Tail flick results,"[5]; SZO dosing group, 3-day treatment saline, testing dose 0.25 mg/kg SC, Day +3, n = 8",7.44 ± 11.94 % MPE
same,Tail flick results,"[5]; SZO dosing group, 3-day treatment saline, testing dose 0.25 mg/kg SC, Day −1, n = 8",13.69 ± 8.94 % MPE
same,Tail flick results,"[5]; SZO dosing group, 3-day treatment saline, testing dose 0.5 mg/kg SC, Day +3, n = 8",8.92 ± 11.30 % MPE
same,Tail flick results,"[5]; SZO dosing group, 3-day treatment saline, testing dose 0.5 mg/kg SC, Day −1, n = 8",21.86 ± 13.71 % MPE
same,Tail flick results,"[5]; SZO dosing group, 3-day treatment saline, testing dose 0.75 mg/kg SC, Day +3, n = 8",51.09 ± 46.28 % MPE
same,Tail flick results,"[5]; SZO dosing group, 3-day treatment saline, testing dose 0.75 mg/kg SC, Day −1, n = 8",65.33 ± 32.06 % MPE
same,Tail flick results,"[5]; SZO dosing group, 3-day treatment saline, testing dose 1 mg/kg SC, Day +3, n = 8",35.55 ± 27.94 % MPE
same,Tail flick results,"[5]; SZO dosing group, 3-day treatment saline, testing dose 1 mg/kg SC, Day −1, n = 8",90.33 ± 19.58 % MPE
same,Tail flick results,"[5]; SZO dosing group, 3-day treatment saline, testing dose 1.5 mg/kg SC, Day −1, n = 8",100.00 ± 0.00 % MPE
same,Tail flick results,"[5]; SZO dosing group, 3-day treatment saline, testing dose 3.0 mg/kg SC, Day +3, n = 8",100.00 ± 0.00 % MPE
same,"tolerance, SZO dosing regimen versus biphasic dosing regimen","[5]; full ANOVA model, 158 rats",not statistically significantly different
same,"tolerance, rats treated with oxycodone for 3 days versus saline","[5]; full ANOVA model, p=0.0039",statistically different
same,estimated mean tolerance difference between the SZO dosing regimen and the biphasic dosing regimen,"[5]; reduced ANOVA model, not statistically different at α 0.05",−3.2 %MPE
same,estimated mean tolerance difference (Day +3 minus Day −1) between the oxycodone and saline treated rats,"[5]; reduced ANOVA model, p=0.0035, testing doses 0-1 mg/kg",−10.7 %MPE
same,half-life,[6],about 3.2 hours
